Active and inactive are the calls of the source. The calls are words filed in the database; no cut-off is given here.
Columns and labels:
Mus musculus [1] = assay: Cardiotoxicity in ICR mouse xenografted with mouse S180 cells; assay type: toxicity, organism-based, CCRF S-180; conditions: in vivo
Mus musculus [2] = assay: Acute toxicity in ICR mouse assessed as change in serum creatinine level at 100 umol/kg, po administered as single dose measured on 7th day; assay type: organism-based; conditions: in vivo
Mus musculus [3] = assay: Acute toxicity in ICR mouse assessed as change in serum AST level at 100 umol/kg, po administered as single dose measured on 7th day; assay type: organism-based; conditions: in vivo
Mus musculus [4] = assay: Acute toxicity in ICR mouse xenografted with S180 cells assessed as kidney weight at 100 umol/kg, po; assay type: organism-based, CCRF S-180; conditions: in vivo
Mus musculus [5] = assay: Acute toxicity in ICR mouse xenografted with S180 cells assessed as liver weight at 100 umol/kg, po; assay type: organism-based, CCRF S-180; conditions: in vivo
CCRF S-180 [6] = assay: Antitumor activity against mouse S180 cells xenografted in po dosed ICR mouse assessed as decrease in tumor growth administered daily for 14 days; assay type: functional, organism-based
HeLa [7] = assay: Antiproliferative activity against human HeLa cells at 3.5 uM after 24 hrs by confocal microscopy; assay type: functional, cell-based
CCRF S-180 [8] = assay: Antiproliferative activity against mouse S180 cells assessed as cell viability after 48 hrs by MTT assay; assay type: functional, cell-based; conditions: CCRF S-180, 48 h
CCRF S-180 [9] = assay: Antiproliferative activity against mouse S180 cells at 3.5 uM after 24 hrs by confocal microscopy; assay type: functional, cell-based
Calf thymus DNA [10] = assay: Induction of DNA intercalation of calf thymus DNA assessed as increase in absorption at 7.4 uM measured at 208 nm using 200 uM calf thymus DNA by UV spectrophotometry; assay type: nucleic-acid assay; conditions: Bos taurus
Heart = assay: Drug uptake in ICR mouse heart xenografted with mouse S180 cells at 1 umol/kg/day, po after 7 days; assay type: ADME, organism-based, CCRF S-180; conditions: in vivo, 168 h
[11] = Retention time of compound by HPLC method; assay type: physicochemical
Calf thymus DNA [12] = assay: Induction of DNA intercalation of calf thymus DNA assessed as increase in absorption at 0.9 uM using 4 uM calf thymus DNA measured at 258 nm by UV spectrophotometry; assay type: nucleic-acid assay; conditions: Bos taurus
Mus musculus [13] = assay: Acute toxicity in ICR mouse assessed as change in serum ALT level at 100 umol/kg, po administered as single dose measured on 7th day; assay type: organism-based; conditions: in vivo
Spleen = assay: Drug uptake in ICR mouse spleen xenografted with mouse S180 cells at 1 umol/kg/day, po after 7 days; assay type: ADME, organism-based, CCRF S-180; conditions: in vivo, 168 h
Kidney = assay: Drug uptake in ICR mouse kidney xenografted with mouse S180 cells at 1 umol/kg/day, po after 7 days; assay type: ADME, organism-based, CCRF S-180; conditions: in vivo, 168 h
Mus musculus [14] = assay: Acute toxicity in ICR mouse xenografted with S180 cells assessed as spleen weight at 100 umol/kg, po; assay type: organism-based, CCRF S-180; conditions: in vivo
HeLa [15] = assay: Antiproliferative activity against human HeLa cells assessed as cell viability after 48 hrs by MTT assay; assay type: functional, cell-based
CCRF S-180 [16] = assay: Potency index, ratio of activity of Doxorubicin to test compound for antitumor activity against mouse S180 cells; assay type: functional
Tumour = assay: Drug level in tumor in ICR mouse xenografted with S180 cells at 1 umol/kg/day, po after 7 days; assay type: ADME, organism-based, Neoplasm, CCRF S-180; conditions: in vivo, 168 h
Calf thymus DNA [17] = assay: Induction of DNA intercalation of calf thymus DNA assessed as increase in fluorescence intensity at 345 nm using 80 uM calf thymus DNA by fluorescence spectroscopy; assay type: nucleic-acid assay; conditions: Bos taurus
Mus musculus [18] = assay: Acute toxicity in ICR mouse assessed as morphological changes in organs at 100 umol/kg, po administered as single dose observed for 7 days; assay type: organism-based; conditions: in vivo, 168 h
Liver = assay: Drug uptake in ICR mouse liver xenografted with mouse S180 cells at 1 umol/kg/day, po after 7 days; assay type: ADME, organism-based, CCRF S-180; conditions: in vivo, 168 h
Calf thymus DNA [19] = assay: Induction of DNA intercalation of calf thymus DNA assessed as increase in absorption at 0.9 uM using 4 uM calf thymus DNA measured at 208 nm by UV spectrophotometry; assay type: nucleic-acid assay; conditions: Bos taurus
Blood = assay: Drug uptake in ICR mouse blood xenografted with mouse S180 cells at 1 umol/kg/day, po after 7 days; assay type: ADME, organism-based, CCRF S-180; conditions: in vivo, 168 h
Mus musculus [20] = assay: Acute toxicity in ICR mouse assessed as normal behavior at 100 umol/kg, po administered as single dose observed for 7 days; assay type: organism-based; conditions: in vivo, 168 h
Calf thymus DNA [21] = assay: Induction of DNA intercalation of calf thymus DNA assessed as decrease in absorption at 7.4 uM measured at 258 nm using 200 uM calf thymus DNA by UV spectrophotometry; assay type: nucleic-acid assay; conditions: Bos taurus
Brain = assay: Drug uptake in ICR mouse brain xenografted with mouse S180 cells at 1 umol/kg/day, po after 7 days; assay type: ADME, organism-based, CCRF S-180; conditions: in vivo, 168 h
Mus musculus [22] = assay: Acute toxicity in ICR mouse xenografted with S180 cells assessed as brain weight at 100 umol/kg, po; assay type: organism-based, CCRF S-180; conditions: in vivo
Lung = assay: Drug uptake in ICR mouse lung xenografted with mouse S180 cells at 1 umol/kg/day, po after 7 days; assay type: ADME, organism-based, CCRF S-180; conditions: in vivo, 168 h
Calf thymus DNA [23] = assay: Induction of DNA intercalation of calf thymus DNA assessed as decrease in fluorescence intensity at 345 nm measured at 0.18 uM by fluorescence spectroscopy; assay type: nucleic-acid assay; conditions: Bos taurus
Mus musculus [24] = assay: Acute toxicity in ICR mouse xenografted with S180 cells assessed as heart weight at 100 umol/kg, po; assay type: organism-based, CCRF S-180; conditions: in vivo

COc1cccc2c1C(=O)c1c(O)c3c(c(O)c1C2=O)C[C@@](O)(C(=O)CO)C[C@@H]3O[C@H]1C[C@H](N)[C@H](O)[C@H](C)O1 [DOXORUBICIN]
Activity (Mus musculus [1]): Toxic

O=C1[C@@H]2Cc3c([nH]c4ccccc34)CN2C(=O)[C@@H]2Cc3c([nH]c4ccccc34)CN12
Activity (Mus musculus [2]): Non-toxic
Activity (Mus musculus [3]): Non-toxic
Activity (Mus musculus [4]): Non-toxic
Activity (Mus musculus [5]): Non-toxic
Activity (CCRF S-180 [6]): Dose-dependent effect
Activity (HeLa [7]): Active
IC50 (CCRF S-180 [8]): 390 nM
Activity (CCRF S-180 [9]): Active
Activity (Calf thymus DNA [10]): Active
Drug uptake (Heart): Not Active
Retention_time [11]: 5.704 min
Activity (Calf thymus DNA [12]): Active
Activity (Mus musculus [13]): Non-toxic
Drug uptake (Spleen): Not Active
Drug uptake (Kidney): Not Active
Activity (Mus musculus [14]): Non-toxic
IC50 (HeLa [15]): 3500 nM
Ratio (CCRF S-180 [16]): 2
Drug uptake (Tumour): Active
Activity (Calf thymus DNA [17]): Active
Activity (Mus musculus [18]): Non-toxic
Drug uptake (Liver): Not Active
Activity (Calf thymus DNA [19]): Active
Drug uptake (Blood): Not Active
Activity (Mus musculus [20]): Non-toxic
Activity (Calf thymus DNA [21]): Active
Drug uptake (Brain): Not Active
Activity (Mus musculus [22]): Non-toxic
Drug uptake (Lung): Not Active
Activity (Calf thymus DNA [23]): Active
Activity (Mus musculus [24]): Non-toxic
Activity (Mus musculus [1]): Non-toxic
